IC50 data for 26 molecules are collected here from patent US12215112B2, “CD151 inhibitors” (ESFAM BIOTECH PTY LTD, priority 2020, dated 2025).

The subject of the test is PC3 cells. As to the kind of experiment: xCELLigence RTCA real-time cell invasion assay (CIM plate, Matrigel) on PC3 prostate cancer cells. Format: cell-based. Conditions: Homo sapiens, PC-3, compound 25 uM to 1 uM, cell index monitored for 72 hours, four-parameter dose-response curve, read-out: IC50, Effect of compounds on the invention on prostate cancer cells. Here is the method:
The media antibiotics and serum were purchased from Invitrogen (Life Technologies). PC3 cells were purchased from ATCC (Granville, NSW, Australia). PC3 cells were expanded in cell culture T75 flasks with vented cap and then preserved in low passage number. The medium used for PC3 cells was RPMI (GlutaMAX) supplemented with 10% FCS and 1% penicillin/streptomycin (culture media). The cells were maintained at 37° C. in a humidified 95% (v/v) air/5% (v/v) CO2 environment and were grown up to 80% confluence.
XCELLigence® real-time cell analysis (RTCA) instrument (ACEA Biosciences), 16-well ACEA CIM-Plates, 16-well ACEA E-Plat and assembly tool were purchased from ELITechGroup empowering IVD (Braeside, Australia). The Matrigel was purchased from Corning (Australia).
To measure cell invasion under compound treatment the upper chamber of the CIM plate was coated with 5% Matrigel diluted in SF RPMI (20 μl) and incubated in a 37° C. tissue culture incubator for four hours. Using the assembly tool to support the chambers the lower chamber was filled with (160 μl) of culture media containing the compound in specific concertation from 25 uM to 1 uM and two controls (DMSO 0.1% and ESFAM 4C 10 uM) (see the schematic in FIG. 1). Once the upper chamber was placed on the top of the lower chamber it was loaded with (40 μl) serum-free (SF) RPMI containing the compound as previously stated. After one hour calibration in 37° C., plates were placed into the xCELLigence station, and the base-line electric impedance was measured to confirm that all wells and connections were working properly. In case of connection problem, the software automatically informs the researcher about the nature of the problem in the message section. Subsequently cells were trypsinized and upon harvesting and counting they were diluted in SF RPMI to desired density (3×10^4) and seeded (100 μl) in the wells. After 30 minutes of incubation in room-temperature to allow cell attachment the plates were loaded in the xCELLigence RTCA DP machine. The cell invasion was monitored in real-time for the duration of 72 hours. […]
The xCELLigence system automatically monitored the electrical impedance value of each well and expressed as a cell index (CI) value for the duration of 72 hours. The data for treatments was automatically grouped as the mean±standard deviation. The software version used in these experiments is 1.2.1. The electronic record of the experimental data is automatically saved in file that cannot be altered or changed by the researcher.
Statistical analysis was performed using Microsoft® Office EXCEL and GraphPad Prism 7. The IC50 was calculated from the four-parameter dose-response curve (log(inhibitor) vs. response-variable slopes). Where the row-data was inserted in GraphPad Prism 7 (Dose response x-log(dose)) and analysed for XY nonlinear regression (curve fit), dose response-inhibition, log(inhibitor) vs response variable slope (four parameters). For the IC90 calculation the log(IC50)=log(IC90)-(1/HillSlope)*log(9) equation was used in EXCEL based on the raw data extracted from xCELLigence system and the dose-response curve.
The term IC50 denotes the point on the concentration scale where inhibition reaches its midpoint. Take `COc1cccc(NC(=O)c2cc3nc(N(C)[C@@H](C)c4ccccc4)cc(-c4cn[nH]c4)n3n2)c1` [Compound 14, (S)—N-(3-methoxyphenyl)-5-(methyl(1-phenylethyl)amino)-7-(1H-pyrazol-4-yl)pyrazolo[1,5-a]pyrimidine-2-carboxamide]: the IC50 stood at 1.96 µM.
The figure for `C[C@@H](c1ccccc1)N(C)c1cc(-c2cn[nH]c2)n2nc(C(=O)Nc3cccc(O)c3)cc2n1` [Compound 15, (S)—N-(3-hydroxyphenyl)-5-(methyl(1-phenylethyl)amino)-7-(1H-pyrazol-4-yl)pyrazolo[1,5-a]pyrimidine-2-carboxamide] is 1.02 µM; for `C[C@@H](c1ccccc1)N(C)c1cc(-c2cn[nH]c2)n2nc(C(=O)Nc3ccccc3)cc2n1` [Compound 16, (S)-5-(methyl(1-phenylethyl)amino)-N-phenyl-7-(1H-pyrazol-4-yl)pyrazolo[1,5-a]pyrimidine-2-carboxamide] it is 150 µM; for `C[C@@H](c1ccccc1)N(C)c1cc(-c2cn[nH]c2)n2nc(C(N)=O)cc2n1` [Compound 17, (S)-5-(methyl(1-phenylethyl)amino)-7-(1H-pyrazol-4-yl)pyrazolo[1,5-a]pyrimidine-2-carboxamide] it is 9.67 µM.
The figure for `CC(C)Oc1cccc(NC(=O)c2cc3nc(N(C)Cc4ccccc4)cc(-c4cn[nH]c4)n3n2)c1` [Compound 18, 5-(benzyl(methyl)amino)-N-(3-isopropoxyphenyl)-7-(1H-pyrazol-4-yl)pyrazolo[1,5-a]pyrimidine-2-carboxamide] is 7.95 µM; for `CN(Cc1ccccc1)c1cc(-c2cn[nH]c2)n2nc(C(=O)Nc3cccc(OC(F)F)c3)cc2n1` [Compound 19, 5-(benzyl(methyl)amino)-N-(3-(difluoromethoxy)phenyl)-7-(1H-pyrazol-4-yl)pyrazolo[1,5-a]pyrimidine-2-carboxamide] it is 12.8 µM; for `CN(C)c1cccc(NC(=O)c2cc3nc(N(C)Cc4ccccc4)cc(-c4cn[nH]c4)n3n2)c1` [Compound 20, 5-(benzyl(methyl)amino)-N-(3-(dimethylamino)phenyl)-7-(1H-pyrazol-4-yl)pyrazolo[1,5-a]pyrimidine-2-carboxamide] it is 3.56 µM.
The figure for `CN1CCN(c2cccc(NC(=O)c3cc4nc(N(C)Cc5ccccc5)cc(-c5cn[nH]c5)n4n3)c2)CC1` [Compound 22, 5-(benzyl(methyl)amino)-N-(3-(4-methylpiperazin-1-yl)phenyl)-7-(1H-pyrazol-4-yl)pyrazolo[1,5-a]pyrimidine-2-carboxamide] is 3.71 µM.
With `O=C(Nc1ccccc1)c1cc2nc(N3Cc4ccccc4C3)cc(-c3cn[nH]c3)n2n1` [Compound 23, 5-(isoindolin-2-yl)-N-phenyl-7-(1H-pyrazol-4-yl)pyrazolo[1,5-a]pyrimidine-2-carboxamide], the concentration for half-maximal inhibition (IC50) was 2.83 µM.
Regarding `O=C(Nc1cccc(O)c1)c1cc2nc(N3Cc4ccccc4C3)cc(-c3cn[nH]c3)n2n1` [Compound 24, N-(3-hydroxyphenyl)-5-(isoindolin-2-yl)-7-(1H-pyrazol-4-yl)pyrazolo[1,5-a]pyrimidine-2-carboxamide], the IC50 turned out to be 1.42 µM.
The figure for `COc1cccc(NC(=O)c2cc3nc(N4Cc5ccccc5C4)cc(-c4cn[nH]c4)n3n2)c1` [Compound 25, 5-(isoindolin-2-yl)-N-(3-methoxyphenyl)-7-(1H-pyrazol-4-yl)pyrazolo[1,5-a]pyrimidine-2-carboxamide] is 2.43 µM; for `O=C(Nc1cccc(OC(F)(F)F)c1)c1cc2nc(N3Cc4ccccc4C3)cc(-c3cn[nH]c3)n2n1` [Compound 26, 5-(isoindolin-2-yl)-7-(1H-pyrazol-4-yl)-N-(3-(trifluoromethoxy)phenyl)pyrazolo[1,5-a]pyrimidine-2-carboxamide] it is 9.74 µM.
The figure for `CCOc1cccc(NC(=O)c2cc3nc(N4Cc5ccccc5C4)cc(-c4cn[nH]c4)n3n2)c1` [Compound 27, N-(3-ethoxyphenyl)-5-(isoindolin-2-yl)-7-(1H-pyrazol-4-yl)pyrazolo[1,5-a]pyrimidine-2-carboxamide] is 1.99 µM; for `CC(C)Oc1cccc(NC(=O)c2cc3nc(N4Cc5ccccc5C4)cc(-c4cn[nH]c4)n3n2)c1` [Compound 28, 5-(isoindolin-2-yl)-N-(3-isopropoxyphenyl)-7-(1H-pyrazol-4-yl)pyrazolo[1,5-a]pyrimidine-2-carboxamide] it is 2.03 µM.
Next, `CN(Cc1ccccc1)c1cc(-c2cn[nH]c2)n2nc(C(=O)Nc3ccc(Cl)cc3)cc2n1` [Compound 29, 5-(benzyl(methyl)amino)-N-(4-chlorophenyl)-7-(1H-pyrazol-4-yl)pyrazolo[1,5-a]pyrimidine-2-carboxamide]: 3.58 µM.
On to `CN(Cc1ccccc1)c1cc(-c2cn[nH]c2)n2nc(C(=O)Nc3cccc(Cl)c3)cc2n1` [Compound 30, 5-(benzyl(methyl)amino)-N-(3-chlorophenyl)-7-(1H-pyrazol-4-yl)pyrazolo[1,5-a]pyrimidine-2-carboxamide], for which the IC50 is 1.61 µM.
Turning to `CN(Cc1ccccc1)c1cc(-c2cn[nH]c2)n2nc(C(=O)Nc3ccccc3Cl)cc2n1` [Compound 31, 5-(benzyl(methyl)amino)-N-(2-chlorophenyl)-7-(1H-pyrazol-4-yl)pyrazolo[1,5-a]pyrimidine-2-carboxamide], the IC50 was found to be 2.21 µM.
The figure for `CN(Cc1ccccc1)c1cc(-c2cn[nH]c2)n2nc(C(=O)Nc3ccc(C(F)(F)F)cc3)cc2n1` [Compound 32, 5-(benzyl(methyl)amino)-7-(1H-pyrazol-4-yl)-N-(4-(trifluoromethyl)phenyl)pyrazolo[1,5-a]pyrimidine-2-carboxamide] is 3.04 µM.
Next, `CN(Cc1ccccc1)c1cc(-c2cn[nH]c2)n2nc(C(=O)Nc3cccc(C(F)(F)F)c3)cc2n1` [Compound 33, 5-(benzyl(methyl)amino)-7-(1H-pyrazol-4-yl)-N-(3-(trifluoromethyl)phenyl)pyrazolo[1,5-a]pyrimidine-2-carboxamide]: 2.59 µM.
For the molecule `CN(Cc1ccccc1)c1cc(-c2cn[nH]c2)n2nc(C(=O)Nc3ccccc3C(F)(F)F)cc2n1` [Compound 34, 5-(benzyl(methyl)amino)-7-(1H-pyrazol-4-yl)-N-(2-(trifluoromethyl)phenyl)pyrazolo[1,5-a]pyrimidine-2-carboxamide], the IC50 turned out to be 8.97 µM.
The figure for `CN(Cc1ccccc1)c1cc(-c2cn[nH]c2)n2nc(C(=O)Nc3ccc(F)cc3)cc2n1` [Compound 35, 5-(benzyl(methyl)amino)-N-(4-fluorophenyl)-7-(1H-pyrazol-4-yl)pyrazolo[1,5-a]pyrimidine-2-carboxamide] is 1.4 µM.
The figure for `CN(Cc1ccccc1)c1cc(-c2cn[nH]c2)n2nc(C(=O)Nc3cccc(F)c3)cc2n1` [Compound 36, 5-(benzyl(methyl)amino)-N-(3-fluorophenyl)-7-(1H-pyrazol-4-yl)pyrazolo[1,5-a]pyrimidine-2-carboxamide] is 1.47 µM; for `CN(Cc1ccccc1)c1cc(-c2cn[nH]c2)n2nc(C(=O)Nc3ccccc3F)cc2n1` [Compound 37, 5-(benzyl(methyl)amino)-N-(2-fluorophenyl)-7-(1H-pyrazol-4-yl)pyrazolo[1,5-a]pyrimidine-2-carboxamide] it is 3.1 µM.
Turning to `COc1ccc(CN(C)c2cc(-c3cn[nH]c3)n3nc(C(=O)Nc4ccc(Cl)cc4)cc3n2)cc1` [Compound 38, N-(4-chlorophenyl)-5-((4-methoxybenzyl)(methyl)amino)-7-(1H-pyrazol-4-yl)pyrazolo[1,5-a]pyrimidine-2-carboxamide], the IC50 worked out at 4.36 µM.
The figure for `COc1cccc(CN(C)c2cc(-c3cn[nH]c3)n3nc(C(=O)Nc4ccc(Cl)cc4)cc3n2)c1` [Compound 39, N-(4-chlorophenyl)-5-((3-methoxybenzyl)(methyl)amino)-7-(1H-pyrazol-4-yl)pyrazolo[1,5-a]pyrimidine-2-carboxamide] is 8.46 µM; for `COc1ccccc1CN(C)c1cc(-c2cn[nH]c2)n2nc(C(=O)Nc3ccc(Cl)cc3)cc2n1` [Compound 40, N-(4-chlorophenyl)-5-((2-methoxybenzyl)(methyl)amino)-7-(1H-pyrazol-4-yl)pyrazolo[1,5-a]pyrimidine-2-carboxamide] it is 3.96 µM.
